{"source": "patent US20060216333A1", "about": "“Methods related to the treatment of mucosal associated conditions” (priority 2003, published 2006)", "assay_type_in_all_cases": "in vivo, rat", "key": {"[1]": {"system": "TNF", "experiment": "Serum and vaginal tissue TNF after intravaginal dosing of rats (ELISA)", "conditions": "for TNF Tissue: vaginal tissue, per 200 mg", "procedure": "(§1) In the examples below the serum and intravaginal cytokine data were obtained using the following general test method.\n(§2) Rats were acclimated to collars (Lomir Biomedical, Malone, N.Y.) around the neck on two consecutive days prior to actual dosing. Rats were collared to prevent removal of the device and ingestion of the drug. Animals were then dosed intravaginally with a removable device or with […] of cream. Single dosed rats received one intravaginal dose with samples collected at various times following dosing. Blood was collected by cardiac puncture. Blood was allowed to clot briefly at room temperature and serum was separated from the clot via centrifugation. The serum was stored at −20° C. until it was analyzed for cytokine concentrations.\n(§3) Following blood collection, the rats were euthanized and their vaginal tract, including the cervix, was then removed and the tissue was weighed, placed in a sealed 1.8 mL cryovial and flash frozen in liquid nitrogen. The frozen vaginal tissue sample was then suspended in 1.0 mL of RPMI medium (Celox, St. Paul, Minn.) containing 10% fetal bovine serum (Atlas, Fort Collins, Colo.), 2 mM L-glutamine, penicillin/streptomycin and 2-mercaptoethanol (RPMI complete) combined with a protease inhibitor cocktail set III (Calbiochem, San Diego, Calif.). The tissue was homogenized using a Tissue Tearor (Biospec Products, Bartlesville, Okla.) for approximately one minute. The tissue suspension was then centrifuged at 2000 rpm for 10 minutes under refrigeration to pellet the debris, and the supernatant collected and stored at −20° C. until analyzed for cytokine concentrations.\n(§4) ELISA kits for rat TNF were purchased from BD PharMingen (San Diego, Calif.) and the rat MCP-1 ELISA kits were purchased from BioSource Intl. (Camarillo, Calif.).\n(§5) Both kits were performed according to manufacturer's specifications. Results for both TNF and MCP-1 are expressed in pg/mL and are normalized per 200 mg of tissue. […] “Post dosing” means after treatment initiation. For example, if a device was inserted a time 0 hours and removed at 2 hours and cytokines were assayed at 4 hours, then the cytokines were assayed at 4 hours post dosing."}, "[2]": {"system": "rats", "experiment": "Histologic examination of vaginas and vulvas, Example 9", "conditions": "removed after 2 hours, necropsied 22 hours after removal; for Vagina Erosion or ulceration / Vulva Erosion or ulceration: incidence; for Vagina Inflammation / Vulva Inflammation: mean score, 0=none to 4=severe", "procedure": "Devices were prepared from either cotton as described in Example 1 or from polyurethane foam (Medisorb 100—1.25:Polysorbate 60 at 1% concentration at 1.25/1 ratio, from Lendell Manufacturing, Inc, St. Charles, Mich.). The devices were saturated with one of the following solutions: 0.1% ERM 3 in 50/50 ISA/IPM; 1.0% IRM 3 in 50/50 ISA/IPM; 3.0% IRM 3 in 50/50 ISA/IPM or with 50/50 ISA/IPM (vehicle). Rats were dosed intravaginally; the devices were removed after 2 hours. […] Cytokines were assayed at 4 hours post dosing. The results are shown in the table below where each value is the mean of the values for 3 rats.\n(§6) Groups of 3 rats were treated as described in Example 5 and necropsied 22 hours after the devices were removed. Vaginas and vulvas were collected, fixed and processed routinely for histologic examination. Inflammation was scored as follows: 0=none, 1=minimal, 2=mild, 3=moderate, 4=severe. The values in the tables are the mean of the scores for 3 rats."}, "[3]": {"system": "rats", "experiment": "Histologic examination of vaginas and vulvas, Example 10", "conditions": "necropsied 24 hours after treatment initiation", "procedure": "as §6\nCotton devices were prepared as described in Example 1. The devices were saturated with a solution containing 5% by weight of IRM 3 in 50/50 w/w isostearic acid/isopropyl myristate. One group of 5 rats was dosed intravaginally with the devices. The devices were removed after 2 hours. A second group of 5 rats was dosed intravaginally with 5% IRM 3 cream. The cream was washed out after 2 hours. A third group of 5 rats was dosed intravaginally with 5% IRM 3 cream but the cream was not removed. The rats were necropsied 24 hours after treatment initiation. Vaginas and vulvas were collected, fixed and processed routinely for histologic examination. The scoring system described in Example 9 was used."}, "[4]": {"system": "MCP-1", "experiment": "Serum and vaginal tissue MCP-1 after intravaginal dosing of rats (ELISA)", "conditions": "for MCP-1 Tissue: vaginal tissue, per 200 mg", "procedure": "as §1, §2, §3, §4, §5"}, "[5]": {"conditions": "2 hr post dose, 5% in 50/50 ISA/IPM, cotton pellet device removed after 2 hours, Example 7"}, "[6]": {"conditions": "4 hours post dosing, 0.1% in 50/50 ISA/IPM, cotton device removed after 2 hours, Example 5"}, "[7]": {"conditions": "4 hours post dosing, 0.1% in 50/50 ISA/IPM, foam device removed after 2 hours, Example 5"}, "[8]": {"conditions": "4 hours post dosing, 1.0% in 50/50 ISA/IPM, cotton device removed after 2 hours, Example 5"}, "[9]": {"conditions": "4 hours post dosing, 1.0% in 50/50 ISA/IPM, foam device removed after 2 hours, Example 5"}, "[10]": {"conditions": "4 hours post dosing, 3.0% in 50/50 ISA/IPM, cotton device removed after 2 hours, Example 5"}, "[11]": {"conditions": "4 hours post dosing, 3.0% in 50/50 ISA/IPM, foam device removed after 2 hours, Example 5"}, "[12]": {"conditions": "4 hr post dose, 5% in 50/50 ISA/IPM, cotton pellet device removed after 2 hours, Example 7"}, "[13]": {"conditions": "6 hr post dose, 5% in 50/50 ISA/IPM, cotton pellet device removed after 2 hours, Example 7"}, "[14]": {"conditions": "incidence, cotton device 5% removed after 2 hours"}}, "note": "Marks after values point to notes of the source that are not given here.", "data": [{"smiles": "CC(C)Cn1cnc2c(N)nc3cccnc3c21", "note": "[IRM 3, 1-(2-methylpropyl)-1H-imidazo[4,5-c][1,5]naphthyridin-4-amine]", "values": [{"measurement": "TNF Serum", "setting": "[1]; [5]", "result": 4, "unit": "pg/mL"}, {"measurement": "TNF Serum", "setting": "[1]; [6]", "result": 0, "unit": "pg/mL"}, {"measurement": "TNF Serum", "setting": "[1]; [7]", "result": 0, "unit": "pg/mL"}, {"measurement": "TNF Serum", "setting": "[1]; [8]", "result": 0, "unit": "pg/mL"}, {"measurement": "TNF Serum", "setting": "[1]; [9]", "result": 0, "unit": "pg/mL"}, {"measurement": "TNF Serum", "setting": "[1]; [10]", "result": 0, "unit": "pg/mL"}, {"measurement": "TNF Serum", "setting": "[1]; [11]", "result": 0, "unit": "pg/mL"}, {"measurement": "TNF Serum", "setting": "[1]; [12]", "result": 3, "unit": "pg/mL"}, {"measurement": "TNF Serum", "setting": "[1]; [13]", "result": 5, "unit": "pg/mL"}, {"measurement": "TNF Tissue", "setting": "[1]; [5]", "result": 809, "unit": "pg/mL"}, {"measurement": "TNF Tissue", "setting": "[1]; [6]", "result": 108, "unit": "pg/mL"}, {"measurement": "TNF Tissue", "setting": "[1]; [7]", "result": 85, "unit": "pg/mL"}, {"measurement": "TNF Tissue", "setting": "[1]; [8]", "result": 173, "unit": "pg/mL"}, {"measurement": "TNF Tissue", "setting": "[1]; [9]", "result": 148, "unit": "pg/mL"}, {"measurement": "TNF Tissue", "setting": "[1]; [10]", "result": 175, "unit": "pg/mL"}, {"measurement": "TNF Tissue", "setting": "[1]; [11]", "result": 302, "unit": "pg/mL"}, {"measurement": "TNF Tissue", "setting": "[1]; [12]", "result": 608, "unit": "pg/mL"}, {"measurement": "TNF Tissue", "setting": "[1]; [13]", "result": 114, "unit": "pg/mL"}, {"measurement": "Vagina Erosion or ulceration", "setting": "[2]; cotton device 0.1%", "result": "0/3"}, {"measurement": "Vulva Erosion or ulceration", "setting": "[2]; cotton device 0.1%", "result": "0/3"}, {"measurement": "Vagina Erosion or ulceration", "setting": "[2]; cotton device 1.0%", "result": "0/3"}, {"measurement": "Vulva Erosion or ulceration", "setting": "[2]; cotton device 1.0%, tissue from 1 rat not assessable", "result": "0/2*"}, {"measurement": "Vagina Erosion or ulceration", "setting": "[2]; cotton device 3.0%", "result": "0/3"}, {"measurement": "Vulva Erosion or ulceration", "setting": "[2]; cotton device 3.0%", "result": "0/3"}, {"measurement": "Vagina Erosion or ulceration", "setting": "[2]; foam device 0.1%", "result": "0/3"}, {"measurement": "Vulva Erosion or ulceration", "setting": "[2]; foam device 0.1%", "result": "0/3"}, {"measurement": "Vagina Erosion or ulceration", "setting": "[2]; foam device 1.0%", "result": "0/3"}, {"measurement": "Vulva Erosion or ulceration", "setting": "[2]; foam device 1.0%", "result": "0/3"}, {"measurement": "Vagina Erosion or ulceration", "setting": "[2]; foam device 3.0%", "result": "0/3"}, {"measurement": "Vulva Erosion or ulceration", "setting": "[2]; foam device 3.0%, tissue from 1 rat not assessable", "result": "0/2*"}, {"measurement": "Vagina Inflammation", "setting": "[2]; cotton device 0.1% in 50/50 ISA/IPM", "result": 1.0}, {"measurement": "Vulva Inflammation", "setting": "[2]; cotton device 0.1%", "result": 0.33}, {"measurement": "Vagina Inflammation", "setting": "[2]; cotton device 1.0% in 50/50 ISA/IPM", "result": 2.5}, {"measurement": "Vulva Inflammation", "setting": "[2]; cotton device 1.0%", "result": 0.5}, {"measurement": "Vagina Inflammation", "setting": "[2]; cotton device 3.0% in 50/50 ISA/IPM", "result": 3.17}, {"measurement": "Vulva Inflammation", "setting": "[2]; cotton device 3.0%", "result": 2.17}, {"measurement": "Vagina Inflammation", "setting": "[2]; foam device 0.1% in 50/50 ISA/IPM", "result": 2.17}, {"measurement": "Vulva Inflammation", "setting": "[2]; foam device 0.1%", "result": 0.33}, {"measurement": "Vagina Inflammation", "setting": "[2]; foam device 1.0% in 50/50 ISA/IPM", "result": 2.83}, {"measurement": "Vulva Inflammation", "setting": "[2]; foam device 1.0%", "result": 0.33}, {"measurement": "Vagina Inflammation", "setting": "[2]; foam device 3.0% in 50/50 ISA/IPM", "result": 2.5}, {"measurement": "Vulva Inflammation", "setting": "[2]; foam device 3.0%", "result": 1.75}, {"measurement": "Vagina - erosion", "setting": "[3]; [14]", "result": "0/5"}, {"measurement": "Vagina - ulceration", "setting": "[3]; [14]", "result": "0/5"}, {"measurement": "Vulva - preulcer", "setting": "[3]; [14]", "result": "3/5"}, {"measurement": "Vulva - ulceration", "setting": "[3]; [14]", "result": "0/5"}, {"measurement": "Vagina - Inflammation", "setting": "[3]; mean score, 0=none to 4=severe, cotton device 5% in 50/50 ISA/IPM removed after 2 hours", "result": 3.1}, {"measurement": "Vulva - Inflammation", "setting": "[3]; mean score, 0=none to 4=severe, cotton device 5% removed after 2 hours", "result": 1.7}, {"measurement": "MCP-1 Serum", "setting": "[4]; [5]", "result": 95, "unit": "pg/mL"}, {"measurement": "MCP-1 Serum", "setting": "[4]; [6]", "result": 72, "unit": "pg/mL"}, {"measurement": "MCP-1 Serum", "setting": "[4]; [7]", "result": 77, "unit": "pg/mL"}, {"measurement": "MCP-1 Serum", "setting": "[4]; [8]", "result": 111, "unit": "pg/mL"}, {"measurement": "MCP-1 Serum", "setting": "[4]; [9]", "result": 86, "unit": "pg/mL"}, {"measurement": "MCP-1 Serum", "setting": "[4]; [10]", "result": 79, "unit": "pg/mL"}, {"measurement": "MCP-1 Serum", "setting": "[4]; [11]", "result": 105, "unit": "pg/mL"}, {"measurement": "MCP-1 Serum", "setting": "[4]; [12]", "result": 114, "unit": "pg/mL"}, {"measurement": "MCP-1 Serum", "setting": "[4]; [13]", "result": 171, "unit": "pg/mL"}, {"measurement": "MCP-1 Tissue", "setting": "[4]; [5]", "result": 815, "unit": "pg/mL"}, {"measurement": "MCP-1 Tissue", "setting": "[4]; [6]", "result": 179, "unit": "pg/mL"}, {"measurement": "MCP-1 Tissue", "setting": "[4]; [7]", "result": 143, "unit": "pg/mL"}, {"measurement": "MCP-1 Tissue", "setting": "[4]; [8]", "result": 468, "unit": "pg/mL"}, {"measurement": "MCP-1 Tissue", "setting": "[4]; [9]", "result": 279, "unit": "pg/mL"}, {"measurement": "MCP-1 Tissue", "setting": "[4]; [10]", "result": 402, "unit": "pg/mL"}, {"measurement": "MCP-1 Tissue", "setting": "[4]; [11]", "result": 351, "unit": "pg/mL"}, {"measurement": "MCP-1 Tissue", "setting": "[4]; [12]", "result": 1260, "unit": "pg/mL"}, {"measurement": "MCP-1 Tissue", "setting": "[4]; [13]", "result": 840, "unit": "pg/mL"}]}]}
